Data taken from US7868206B2, “Trihalomethionine derivative and pharmaceutical product containing the same” (National University Corporation, Gunma University, priority 2005, dated 2011).
“And” between values parts separate entries of the source, which are not always exact repeats. Identical values can stand only once. “Also recorded” adds a separate entry of the source. Counter-ions that a name gives are not always drawn. Like-named read-outs stand apart in the source and are kept apart here.

How the values were obtained:
[1] = system: Entamoeba histolytica HM1: IMSS c16 strain; experiment: Inhibition of proliferation of Entamoeba histolytica, anaerobic culture in 96-well plate, 72 hours, WST-1 (Example 2); assay type: cell-based; details: for IC50: Entamoeba histolytica, 0.25 to 20 μM, anaerobic culture, read-out: IC50 (concentration required to inhibit proliferation by 50% compared to untreated controls)
Method: (§1) The Entamoeba histolytica HM1: IMSS c16 strain was cultured for 18 hours in a medium containing each compound at a concentration of 80 μM. […] The cell number was measured by determining the number of living cells of Entamoeba histolytica using WST-1 (Roche Diagnostics K.K.).
The killing effects of each of the compounds: trifluoromethionine (TFM), trifluoromethionine amide (WY200), SK254, SK258, WY241, WY244, WY252, K010, SK276, SK316, SK336, and SK337 on Entamoeba histolytica HM1: IMSS c16 strain were examined. The Entamoeba histolytica HM1: IMSS c16 strain was anaerobically cultured in a medium containing each compound at a concentration of 0.25 to 20 μM in a 96-well plate: The number of cells after 72 hours was determined in the same way as Example 1. […] It was found from the results that many compounds including SK337 killed the Entamoeba histolytica protozoan at concentrations more than 10-fold lower than the concentration of trifluoromethionine.

[2] = system: Entamoeba histolytica HM1: IMSS c16 strain; details: for Total liver weight / Liver non-abscess portions / Liver abscess portions: individual hamsters A, B, C; for Liver abscess portions: dash = no abscess (total = non-abscess)
Method: Next, the compound of the present invention was evaluated in an animal infection experiment using a hamster liver abscess model. First, an Entamoeba histolytica HM1: IMSS c16 strain was injected to 3-week-old female hamsters to induce liver abscesses. […] In Table 2, A, B, and C in the respective groups show individual hamsters used. Many other compounds (trifluoromethionine, SK254, SK258, WY241, WY244, and WY252) were evaluated in animal infection experiments in the same way as Example 3.

[3] = system: Entamoeba histolytica HM1: IMSS c16 strain; experiment: Killing effect on Entamoeba histolytica, living cell number by WST-1 after 18 hours (Example 1, FIG. 1); assay type: cell-based; details: 80 μM, 18 hours culture
Method: as §1, with “The killing effect of each of the compounds: trifluoromethionine (TFM), trifluoromethionine amide (WY200), metronidazole (known anti-amoeba drug) on an Entamoeba histolytica HM1: IMSS c16 strain was examined. The Entamoeba” for “The Entamoeba”

[4] = intraperitoneal 3 μmol (1.1 to 1.3 mg) per hamster (body weight 28 to 37 g), hydrochloride
[5] = intraperitoneal 3 μmol per hamster, hydrochloride
[6] = intraperitoneal 3 μmol (1.1 to 1.3 mg) per hamster (body weight 28 to 37 g)
[7] = intraperitoneal 3 μmol per hamster

SMILES	IC50 [1] [µM]	Total liver weight [2, 6]	Liver non-abscess portions [2, 7]	further results
NC(CSC(F)(F)F)C(=O)Nc1ccccc1 (stereo in doubt) [KO10, (S)-2-amino-N-phenyl-3-(trifluoromethylthio)propanamide hydrochloride]	13.7	–	–	–
Cl.N[C@@H](CCSC(F)(F)F)C(=O)NCc1ccccc1 [SK254, (S)-2-amino-N-benzyl-4-(trifluoromethylthio)butanamide hydrochloride]	2.5	–	–	Total liver weight [2, 4]: A. 2,318 mg; also recorded: B. 2,193 mg; also recorded: C. 2,386 mg; Liver non-abscess portions [2, 5]: 2,318 mg and 2,193 mg and 2,386 mg
Cl.N[C@@H](CCSC(F)(F)F)C(=O)Nc1ccccc1 [SK258, (S)-2-amino-N-phenyl-4-(trifluoromethylthio)butanamide hydrochloride]	2.5	–	–	Total liver weight [2, 4]: A. 2,071 mg; also recorded: B. 2,768 mg; also recorded: C. 1,510 mg; Liver non-abscess portions [2, 5]: 2,071 mg and 2,768 mg and 1,510 mg
N[C@@H](CCSC(F)(F)F)C(=O)NC1CCc2ccccc21 (stereo partly drawn) [SK276, (2S)-2-amino-N-(2,3-dihydro-1H-inden-1-yl)-4-(trifluoromethylthio) butanamide hydrochloride]	6.8	–	–	–
N[C@@H](CSC(F)(F)F)C(=O)NCc1ccccc1 [SK316, (R)-2-amino-N-benzyl-3-(trifluoromethylthio)propanamide hydrochloride]	8.9	–	–	–
COc1cc(NC(=O)[C@@H](N)CCSC(F)(F)F)cc(OC)c1OC [SK336, (S)-2-amino-N-(3,4,5-trimethoxyphenyl)-4-(trifluoromethylthio)butanamide hydrochloride]	1.7	–	–	–
COc1ccc(NC(=O)[C@@H](N)CCSC(F)(F)F)cc1OC.Cl [SK337, (S)-2-amino-N-(3,4-dimethoxyphenyl)-4-(trifluoromethylthio)butanamide hydrochloride]	1.5	–	–	concentration lower than the concentration of trifluoromethionine ([1]; compared with trifluoromethionine): more than 10 fold
N[C@@H](CCSC(F)(F)F)C(=O)O [TFM, trifluoromethionine, reference compound]	17.2	A. 2,240 mg; also recorded: B. 2,415 mg; also recorded: C. 2,575 mg	2,240 mg and 2,415 mg and 2,575 mg	–
NC(=O)[C@@H](N)CCSC(F)(F)F [WY200, trifluoromethionine amide]	–	A. 3,059 mg; also recorded: B. 1,624 mg	3,059 mg and 1,624 mg	killing effect on Entamoeba histolytica (number of living cells) [3]: more effectively than trifluoromethionine; increase of total weights of the liver (in words) ([2]; intraperitoneal 40 μmol): did not increase the total weights of the liver; liver abscess formation (in words) ([2]; intraperitoneal 40 μmol): caused no liver abscess; Total liver weight ([2]; intraperitoneal 40 μmol, 3-week-old female hamsters): B. 2814 mg; also recorded: A. 2157 mg; Liver non-abscess portions ([2]; intraperitoneal 40 μmol): 2814 mg and 2145 mg

The next lines start with results.

IC50 [1] [µM]	SMILES	Total liver weight [2, 6]	Liver non-abscess portions [2, 7]	further results
11.8	Cl.N[C@@H](CCSC(F)(F)F)C(=O)Nc1ccc(Br)cc1 [WY241, 1-(4-bromophenylcarbamoyl)-3-trifluoromethylsulfanyl-propyl-ammonium chloride]	A. 2,916 mg; also recorded: B. 2,371 mg; also recorded: C. 2,900 mg	2,916 mg and 2,371 mg and 2,900 mg	–
5.5	Cl.N[C@@H](CCSC(F)(F)F)C(=O)Nc1ccc(F)cc1F [WY244, 1-(2,4-difluoro-phenylcarbamoyl)-3-trifluoromethylsulfanyl-propyl-ammonium chloride]	A. 2,575 mg; also recorded: B. 2,181 mg; also recorded: C. 2,570 mg	2,561 mg and 2,181 mg and 2,570 mg	Liver abscess portions [2, 7]: 14 mg
1.6	COc1cc(NC(=O)[C@@H](N)CCSC(F)(F)F)cc(OC)c1.Cl [WY252, 1-(3,5-dimethoxy-phenylcarbamoyl)-3-trifluoromethylsulfanyl-propylammonium chloride]	A. 2,539 mg; also recorded: B. 3,338 mg; also recorded: C. 2,687 mg	2,1204 mg and 3,338 mg and 2,687 mg	Liver abscess portions [2, 7]: 19 mg
